Legend:
Human primary myoblasts = test: Myogenic amplification and commitment of muscle stem cells (Pax7/MyoD staining); type: cell-based; conditions: dose response, donors 1 and 2 pooled, 96 hours, control DMSO 1%; for proportion of MyoD+ cells (normalized to total cell number, fold change compared to control): FIG. 1B/2B
Description: Human Skeletal Muscle Myoblasts were purchased from Lonza (https://bioscience.lonza.com). These cells were isolated from the upper arm or leg muscle tissue of normal donors and used after the second passage. Several donors were tested to ensure cell viability and purity before selecting the final donors, which are a person (refer thereafter as Donor 1), a person (refer thereafter as Donor 2) and a person (refer thereafter as Donor 3). Human primary myoblasts were seeded in 384 well plates at a density of 1′000 cells per well in skeletal muscle growth medium (SKM-M, AMSbio). For treatment, compounds were directly added to the myoblast cultures 16 hours after initial plating. All cultures were then grown for 96 hours. Cells were stained for Pax7 and MyoD expression using antibodies directed against Pax7 and MyoD and counterstained with Hoechst 33342 to visualize cell nuclei. Pax7+ cells are defined as cells that express Pax7 regardless of MyoD expression. […] Image acquisition was performed using the ImageXpress (Molecular Devices) platform. Custom module analysis based on Multi-Wavelength Cell Scoring of the MetaXpress software was used for quantification. *, **, ***, **** indicates difference from the control, One-way ANOVA, with p<0.05, p<0.01, p<0.001, p<0.0001, respectively. Data are presented as Mean+/−SEM Human primary myoblasts from different donors (donor 1, donor 2 or donor 3) were seeded in 384 well plates at a density of 1′000 cells per well in skeletal muscle growth medium (SKM-M, AMSbio). For treatment, compounds were directly added to the myoblast cultures 16 hours after initial plating. All cultures were then grown for 96 hours. Cells were stained for Pax7 and MyoD expression using antibodies directed against Pax7 and MyoD and counterstained with Hoechst 33342 to visualize cell nuclei. Pax7+ cells are defined as cells that express Pax7 regardless of MyoD expression. […] Custom module analysis based on Multi-Wavelength Cell Scoring of the MetaXpress software was used for quantification. […] Data are expressed as number of cells per arear of injured muscle.

[1] = tested on: PC-3 cell line (prostate adenocarcinoma); test: Safety of compounds as non-oncogenic: cancer cell proliferation, PC-3; type: cell-based, human; conditions: FIG. 7A, serum and FGF positive controls
Description: (§1) The safety of the compounds was tested in two different human cancer cell lines purchased from ATCC. FIG. 7A cell line PC-3 was of prostate/adenocarcinoma from a person, and FIG. 7B cell line PANC-1 was from a pancreatic duct epitheloid carcinoma from a person. Serum and FGF (Fibroblast Growth Factor) conditions were used as positive controls. *, **, ***, **** indicates difference from the control, One-way ANOVA, with p<0.05, p<0.01, p<0.001, p<0.0001, respectively. Data are presented as Mean+/−SEM.
(§2) The safety of the compounds were tested in two different human cancer cell lines purchased from ATCC. Serum and FGF (Fibroblast Growth Factor) conditions were used as positive controls. *, **, ***, **** indicates difference from the control, One-way ANOVA, with p<0.05, p<0.01, p<0.001, p<0.0001, respectively. Data are presented as Mean+/−SEM.
Cell line PC-3 of prostate/adenocarcinoma from a person (FIG. 7A)

[2] = tested on: PANC-1 cell line (pancreatic duct epitheloid carcinoma); test: Safety of compounds as non-oncogenic: cancer cell proliferation, PANC-1; type: cell-based, human; conditions: FIG. 7B, serum and FGF positive controls
Description: as §1, §2
Cell line PANC-1 was from a pancreatic duct epitheloid carcinoma from a person (FIG. 7B).

## NC(=O)c1cccnc1 [Nicotinamide]
Human primary myoblasts; FIG. 1A
  proportion of Pax7+ cells (normalized to total cell number, fold change compared to control): increasing the proportion of both amplifying (Pax7+) and differentiating (MyoD+) cells in a dose dependent manner
Human primary myoblasts
  proportion of MyoD+ cells (normalized to total cell number, fold change compared to control): increasing the proportion of both amplifying (Pax7+) and differentiating (MyoD+) cells in a dose dependent manner
[1]
  proliferation of cancer cells: no effect on the proliferation of cancer cells
[2]
  proliferation of cancer cells: no effect on the proliferation of cancer cells

## Cc1ncc(CO)c(CO)c1O [Pyridoxine]
Human primary myoblasts
  proportion of MyoD+ cells (normalized to total cell number, fold change compared to control): increasing the proportion of differentiating (MyoD+) cells in a dose dependent manner
[1]
  proliferation of cancer cells: no effect on the proliferation of cancer cells
[2]
  proliferation of cancer cells: no effect on the proliferation of cancer cells
